According to patent publication US20050240034A1, “Artemisinin-based peroxide compounds as broad spectrum anti-infective agents” (priority 2002, published 2005):
Values after ≈ are worked out from the molar mass of the structure shown. Read-outs that look alike come from different tables or passages of the source.

Key:
[1] = system: P. falciparum Sierra Leone D6 clone; assay: WHO/TDR in vitro antimalarial screen (uptake of radiolabeled nucleic acid precursor), D6 clone; type: cell-based, Plasmodium falciparum; conditions: mefloquine-resistant, chloroquine-sensitive, second value in brackets not explained
Method: (§1) All test compounds are solubilized in DMSO and diluted 400 fold (to rule out a DMSO effect) in culture medium with plasma for a starting concentration of at least 12,500 ng/mL. Drugs are subsequently diluted five fold using the Cetus Pro/Pette system utilizing a range of concentrations from 0.8 ng/mL to 12,500 ng/mL. Fifty percent inhibitory concentrations are reported in ng/mL.
(§2) The D6 African P. falciparum clone is sensitive to chloroquine, pyrimethamine and sulfadoxine but resistant to mefloquine. The W2 Indochina P. falciparum clone is resistant to chloroquine, pyrimethamine and sulfadoxine but sensitive to mefloquine. The K1 P. falciparum is a resistant strain, where NF54 P. falciparum is a sensitive strain.

[2] = system: P. falciparum Indochina W2 clone; assay: WHO/TDR in vitro antimalarial screen, W2 clone; type: cell-based, Plasmodium falciparum; conditions: chloroquine-resistant, mefloquine-sensitive, second value in brackets not explained
Method: as §1, §2

[3] = system: P. falciparum K1; assay: WHO/TDR in vitro antimalarial screen, K1; type: cell-based, Plasmodium falciparum; conditions: K1, chloroquine-resistant
Method: as §1, with “[…]. All” for “All”
as §2

[4] = system: P. falciparum NF54; assay: WHO/TDR in vitro antimalarial screen, NF54; type: cell-based, Plasmodium falciparum; conditions: NF54, chloroquine-sensitive, second value in brackets not explained
Method: as §1, with “[…]. All” for “All”
as §2

[5] = system: P. berghei N; assay: in vivo Peter's 4-day antimalarial test in mice, P. berghei N; parameters: P. berghei N P.O. ED50 / P. berghei N P.O. ED90: unit not given beside the values; conditions: mice, 4-day test; for ED50: Plasmodium berghei, 96 h, unit inferred; for P. berghei N P.O. ED90 / P. berghei N S.C. ED90 / P. berghei N P.O. ED50 / P. berghei N S.C. ED50: unit not given
Method: (§3) The parasitemia is determined on the day following the last treatment—day 4 to determine qualitatively the presence and degree of activity at the screening dose.

[6] = system: P. yoelli ssp. NS; assay: in vivo 4-day antimalarial test in mice, P. yoelli ssp. NS; conditions: subcutaneous
Method: as §3

[7] = system: P. falciparum D6 (Sierra Leone); assay: antimalarial parasite LDH (pLDH) assay, D6; type: cell-based, Plasmodium falciparum; conditions: for IC50: pLDH assay, Table 5, read-out: P. falciparum (D6 Clone) IC50; for P. falciparum (IC50) D6: LDH assay, Table 6; for S. I. (D6): Selectivity Index = IC50 (Vero cells)/IC50 (P. falciparum)
Method: (§4) The Thad Cochran National Center for Natural Products Research (University of Mississippi) in vitro antimalarial screen was conducted using an enzyme assay for detection of P. falciparum (see procedure below). This assay is based on the observation that lactate dehydrogenase (LDH) of P. falciparum is distinguishable from host LDH activity. P. falciparum LDH rapidly uses 3-acetyl pyridine nicotinamide adenine dinucleotide (APAD) as a coenzyme in the biotransformation of […].^38 The same process is carried out in human red blood cells at a very slow rate.
(§5) The “Antimalarial parasite LDH assay” is currently being conducted according the following procedure: prepare a suspension of RBC with a 2% parasitemia and 2% hematocrit in malaria complete medium. Dispense 200 μl aliquots of this suspension into each well of a 96 well microtiter plate. Add 10 μl volumes of the drugs to be tested in duplicate to the appropriate wells. Place the plates into humidified chamber and flush the cultures with a gas mixture consisting of 90% N2, 5% O2, and 5% CO2. Transfer the chamber containing the plates to an incubator, and incubate for 48 hours at 37° C. After 48 hours add 100 μl aliquots of the Malstat™ reagent to each well of a new 96-well microtiter plate Resuspend the cultures from the assay plate by mixing each well up and down several times. Remove 20 μl from each well of the resuspend culture and add to the plate containing the Malstat™ reagent. Incubate the plates at room temperature for 30 minutes. After 30 minutes, add to each well 20 μl of the 1:1 mixture of the NBT/PES solution (2 mg/ml and 0.1 mg/ml, respectively). Incubate the plates in the dark for 1 hour. Add 100 μl of 5% acetic acid solution to stop the reaction. The plate is then read at an endpoint of approximately 650 nm. The dose response curves are generated using Microsoft Excel.
(§6) Antimalarial activity of the analogues was determined in vitro on chloroquine sensitive (D)6, Sierra Leone) and resistant (W2, IndoChina) strains of Plasmodium falciparum. The 96 well microplate assay is based on evaluation of the effect of the compounds on the growth of asynchronous cultures of P. falciparum, determined by the assay of parasite lactate dehydrogenase (pLDH) activity.^28 The appropriate dilutions of the compounds were prepared in DMSO or RPMI-1640 medium and added to the cultures of P. falciparum (2% hematocrit, 2% parasitemia) set up in clear flat bottomed 96 well plates. The plates were placed into the humidified chamber and flushed with a gas mixture of 90% N2, 5% CO2 & 5% O2. The cultures were incubated at 37° C. for 48 hours. Growth of the parasite in each well was determined by pLDH assay using Malstat® reagent. The medium and RBC controls were also set-up in each plate. The standard antimalarial agents, chloroquine and artemisinin, were used as the positive controls while DMSO was tested as the negative control.

[8] = system: P. falciparum W2 (IndoChina); assay: antimalarial parasite LDH (pLDH) assay, W2; type: cell-based, Plasmodium falciparum; conditions: for IC50: pLDH assay, Table 5, read-out: P. falciparum (W2 Clone) IC50; for P. falciparum (IC50) W2: LDH assay, Table 6; for S. I. (W2): Selectivity Index = IC50 (Vero cells)/IC50 (P. falciparum)
Method: as §4, §5
as §6, with “plate.” for “plate. The standard antimalarial agents, chloroquine and artemisinin, were used as the positive controls while DMSO was tested as the negative control.”

[9] = system: Leishmania donovani promastigotes expressing firefly luciferase; assay: antileishmanial luciferase assay on transgenic promastigotes; type: cell-based; conditions: Table 1 (artemisinin analogues); NA = not active up to 125 μg/ml; read-out: Antileishmanial activity IC50
Method: Antileishmanial activity of the compounds was tested on a transgenic cell line of Leishmania donovani promastigotes expressing firefly luciferase.^29a In a 96 well microplate assay, compounds with appropriate dilution were added to the leishmania promastigotes culture (2×10^6 cell/mL). The plates were incubated at 26° C. for 72 hours and growth of leishmania promastigotes was determined by luciferase assay with Steady Glo® reagent (Promega, USA). Pentamidine and Amphotericin B were used as standard antileishmanial agents. The analogues were simultaneously tested for cytotoxicity on VERO cells (monkey kidney fibroblast) by Neutral Red assay.^29b IC50 values for the compounds were computed from the growth inhibition curve.

Molecule | P. berghei N P.O. ED90 ([5]; oral) | P. berghei N S.C. ED90 ([5]; subcutaneous) | P. falciparum (IC50) D6 [1] | P. falciparum (IC50) W2 [2] | P. falciparum (IC50) K1 [3] | P. falciparum (IC50) NF54 [4] | P. berghei N P.O. ED50 ([5]; oral) | P. berghei N S.C. ED50 ([5]; subcutaneous) | P. yoelli ssp. NS (S.C.) ED50 ([6]; unit inferred) | P. falciparum (IC50) D6 [7] | S. I. (D6) ([7]; D6) | P. falciparum (IC50) W2 [8] | S. I. (W2) ([8]; W2) | also measured
OC(c1cc(C(F)(F)F)nc2c(C(F)(F)F)cccc12)C1CCCCN1 (centres unmarked) [Mefloquine, mefloquine, reference compound] | 2.3 | 3.8 | – | – | – | – | – | – | – | – | – | – | – | IC50 ([1]; Plasmodium falciparum): 0.0456 µg/mL (≈ 0.12 µM); IC50 ([2]; Plasmodium falciparum): 0.0341 µg/mL (≈ 0.09 µM); IC50 ([3]; Plasmodium falciparum): 0.0203 µg/mL (≈ 0.0538 µM); IC50 ([4]; Plasmodium falciparum): 0.0354 µg/mL (≈ 0.0935 µM); ED50 ([5]; oral, read-out: P. berghei N P.O. ED50): 1.1 mg/kg; ED50 ([5]; sc, subcutaneous, read-out: P. berghei N S.C. ED50): 1.5 mg/kg; ED50 ([6]; Plasmodium yoelii, sc, unit inferred, read-out: P. yoelli ssp. NS (S.C.) ED50): 2.3 mg/kg; IC50 ([7]; Plasmodium falciparum, D6): 0.17 µM; IC50 ([8]; Plasmodium falciparum, W2): 0.195 µM
CCN(CC)CCCC(C)Nc1ccnc2cc(Cl)ccc12 (centres unmarked) [Chloroquine, chloroquine, reference compound] | 3.1 | 3 | 7.58 ng/mL | 118.04 ng/mL | 0.07901 µg/mL | 7.36 ng/mL | 1.7 | 1.5 | 1.6 mg/kg | – | – | – | – | P. yoelli ssp. NS (S.C.) ED90 ([6]; unit inferred): 28 mg/kg; IC50 [7]: 0.0165 µM; IC50 [8]: 0.233 µM
(+)-Octahydro-3,6α-dimethyl-3,12-epoxy-9β-(3′-(m-fluorophenyl)propyl)-12H-pyrano[4,3j]-1,2-benzodioxepin [Compound 37] | 3.4 (1.45-7.5) | 0.85 (0.36-2.3) | 8.28 ng/mL | 26.83 ng/mL | 0.01156 µg/mL | 41.76 (27.33) ng/mL | 0.9 (0.38-1.9) | 0.46 (0.19-1.1) | – | 0.011 µg/mL | >43.0 | 0.012 µg/mL | >40 | P. yoelli ssp. NS (S.C.) ED50 ([6]; unit not given): 0.58 (0.45-1.0); P. yoelli ssp. NS (S.C.) ED90 ([6]; unit not given): 1.00 (0.8-1.8); IC50 [9]: 88.3 µM
CC1CCC2C(CCCc3ccc(Cl)cc3)COC3OC4(C)CCC1C32OO4 (centres unmarked) [Compound 11] | 2.1 | 1.2 | 1.9 (1.9) ng/mL | 3.0 (2.2) ng/mL | – | – | 1.0 | 0.7 | 0.6 mg/kg | – | – | – | – | P. yoelli ssp. NS (S.C.) ED90 ([6]; unit inferred): 1 mg/kg
(+)-Octahydro3,6α-dimethyl-3,12-epoxy-9β-(3′-(3,5-difluorophenyl)propyl)-12H-pyrano[4,3j]-1,2-benzodioxepin [Compound 41] | <10 | <10 | – | 6.70 ng/mL | – | – | <10 | <10 | – | 0.0038 µg/mL | >125 | 0.0023 µg/mL | >207 | –
(+)-Octahydro-3,6α-dimethyl-3,12-epoxy-9β-(3′-(3,5-bistrifluoromethylphenyl)propyl)-12H-pyrano[4,3j]-1,2-benzodioxepin [Compound 40] | <10 | <10 | – | 7.11 ng/mL | – | – | <10 | <10 | – | 0.012 µg/mL | >40 | 0.0095 µg/mL | >50 | –
quinine [reference compound] | 118 | 190 | – | – | 0.0996 µg/mL | 9.08 ng/mL | 71 | 25 | 128 mg/kg | – | – | – | – | –
